Patent US20220202895A1, “PULSATIVE GNRH ADMINISTRATION FOR TREATING COGNITIVE DISORDERS” (INSERM (Institut National de la Santé et de la Recherche …, priority 2019, published 2022)
Entries after “also recorded” stand apart in the source; their conditions may differ.

How the values were obtained:
wild-type mice [1] = assay: LH pulsatility by serial tail blood sampling and LH ELISA; format: in vivo, mouse; conditions: continuous subcutaneous infusion by osmotic pump, 15 days
Method: LH assays: LH levels were determined by the previously described sensitive LH sandwich ELISA (Steyn et al., 2013). A 96-well high-affinity binding microplate (Corning) was coated with 50 μL of capture antibody (monoclonal antibody, anti-bovine LHβ subunit, 518B7; L. Sibley; University of California, UC Davis) at a final dilution of 1:1,000 (in 0.1M Na2CO3/NaHCO3, pH 9.6) and incubated overnight at 4° C. Wells were incubated with 200 μL blocking buffer (5% (w/v) skimmed milk powder in 1×PBS-T pH 7.4 (0.1 M PBS, 0.05% Tween 20 (Sigma #P9416)) for 2 hours at room temperature (RT). A standard curve was generated using a twofold serial dilution of mouse LH (reference preparation, AFP-5306A; National Institute of Diabetes and Digestive and Kidney Diseases National Hormone and Pituitary Program (NIDDK-NHPP)) in 1% (w/v) BSA (Sigma, A9418) in 1×PBS-T. The LH standards and blood samples were incubated with 50 μL of detection antibody (rabbit LH antiserum, AFP240580Rb; NIDDK-NHPP) at a final dilution of 1:10,000 for 1.5 hours at RT. […] The reaction was stopped by the addition of 50 μL of 3M HCl to each well, and the absorbance was measured at 450 nm.
Adult mice were habituated with daily handling. […] LH levels were then determined using the protocol described before. […]

wild-type mice [2] = conditions: mouse, in vivo
Method: Habituation/dishabituation test. The habituation/dishabituation test was used to assess the ability to differentiate between different odours (Breton-Provencher et al., 2009). Mice were single-housed for 8 days prior to testing. This olfactory test included a presentation of acetophenone (00790, Sigma) for habituation and octantal (05608, Sigma) for dishabituation, or vice versa. Before the test, mice were allowed to explore the open-field area and an empty odour box for 30 min. After this habituation period, mice were sequentially presented with one odour for four consecutive trials for a duration of 1 min, and an inter-trial interval of 10 min was maintained to ensure the replacement of the odour. After four consecutive trials, a second odour was presented during a 1 min trial. Odours (20 μl of 1:1000 dilution) were administered on a filter paper and placed in a perforated plastic box to avoid direct contact with the odour stimulus. The measurement consisted of recording the total amount of time the mouse spent sniffing the object during different trials.

wild-type mice [3] = conditions: mouse, in vivo; remark: listed apart in the source
Method: Novel object recognition test. Recognition memory was assessed using the novel object recognition test (Leger et al., 2013). Mice were single-housed for 5 days prior to testing. On day 1, two identical objects (A+A) were placed within the open-field arena on opposite sides of the cage, equidistant from the cage walls. Each mouse was placed within the two objects and allowed to explore them for 15 min. Day 2 consisted of two phases, a familiarization and a test phase. During the familiarization phase (trial 1) that lasted 15 min, mice explored two other identical objects (B+B). After this phase, mice were placed back in its home cage for 1 hour before starting the test phase. During the test phase, one object from trial 1 and a completely new object (B+C) were placed within the open-field area and mice were allowed to explore them for 5 min (trial 2). The object recognition score was calculated as the time spent exploring the new object (trial 2) over the total exploration time, and is used to represent recognition memory function. […]

[4] = tested on: GnRH-R expressing neurons of Gnrhr::Cre mice injected with hM4D(Gi) DREADD viral vector; conditions: mouse, in vivo, 3 mg/kg
[5] = tested on: GnRH-R expressing neurons of Gnrhr::Cre mice injected with hM4D(Gi) DREADD viral vector; conditions: mouse, in vivo, 3 mg/kg; remark: listed apart in the source

Compound	LH pulsatility (pulse frequency and amplitude) (wild-type mice [1])	olfactory performance (wild-type mice [2])	cognitive performance (wild-type mice [3])	olfactory performance (ability to discriminate between different odors) [4]	cognitive performance [5]
LUTRELEF®: a GnRH peptide of clinic use to restore fertility in patients with hypogonadotropic hypogonadism; GnRH acetate/diacetate (gonadorelin), Ferring Pharmaceuticals	prevented; also recorded: blunted LH pulsatility	marked deleterious effects	marked deleterious effects	–	–
C[N+]1([O-])CCN(C2=Nc3cc(Cl)ccc3Nc3ccccc32)CC1 [CNO, clozapine-n-oxide]	–	–	–	dramatically reduced; also recorded: impaired	dramatically reduced; also recorded: impaired
